Test results as given in patent publication EP0786470A1, “PEPTIDE COMPOUND” (SEIKAGAKU KOGYO KABUSHIKI KAISHA, priority 1993, dated 1997).
Like-named read-outs stand apart in the source and are kept apart here. Where a SMILES comes first, the peptide text is derived from it. [ ]: non-standard residue; d: D form. The star is where a group is joined. Piv = CC(C)(C)C(=O)*; GABA = NCCCC(=O)O

Tests used:
Wistar rats [1] = conditions: for number of spontaneous behavior: tonsillar nucleus administration, 10 µmol/ml at 2.7 µl/min for 2 minutes, after 30 minutes of methamphetamine 1.0 mg/kg i.p., control about 1,250 counts; for inhibition of the total number of spontaneous behavior observed within 2 hours after administration of methamphetamine: rat, in vivo
Method: (§1) Wistar rats (250 to 300 g) were anesthetized with pentobarbital (50 mg/kg, i.p.) and their parietal regions were shaved off and the head was respectively fixed on a rat brain fixing apparatus. After incising the scalp, a hole of 1 to 1.2 mm was made in the cranial bones using an electric drill, and a stainless steel guide cannula of 1 to 1.2 mm in diameter and 23 mm in length was inserted into the hole and fixed to the cranial bones with dental cement. As the insertion position of the guide cannula, co-ordinates of tonsillar nucleus (A: -1.3 mm, L: 3.4 mm and V: 8.6 mm from bregma) were selected with reference to the brain illustrations of Paxions and Watson. Rats were reared for 1 week after the operation and then used in the test.
(§2) Drug-free physiological saline containing 13% ethanol (vehicle) was used as a control in the same manner.

male Wistar rats = assay: Inhibition of (±) Bay K8644-induced spontaneous behavior and rearing, drug administered to caudate nucleus putamen (Test Example 3); format: in vivo, rat; conditions: caudate nucleus putamen administration; for number of spontaneous behavior: induced by (±) Bay K8644 (18.5 µmol/ml), in comparison with the control group (Fig. 5); for inhibition action on number of spontaneous behavior / number of rearing: induced by (±) Bay K8644; for inhibition action on number of spontaneous behavior: compared with PLG (Fig. 5); for number of rearing: compared with PLG (Fig. 6)
Excerpt: At the same time, the number of rearing was counted. The term rearing as used herein means an action to stand upright solely with hind legs, which is counted by the naked eye.
The number of spontaneous behavior is shown in Fig. 5, and the number of rearing in Fig. 6, both induced by (±) Bay K8644.

Wistar rats [2] = conditions: for number of spontaneous behavior: caudate nucleus putamen administration
Method: as §1, §2

[3] = after 30 minutes of methamphetamine 1.0 mg/kg i.p.

Row | Structure (SMILES) | number of spontaneous behavior (Wistar rats [1]) | number of spontaneous behavior (male Wistar rats) | number of spontaneous behavior (Wistar rats [2]; 10 µmol/ml at 2.7 µl/min for 2 minutes, after 15 minutes of methamphetamine 1.0 mg/kg i.p.) | number of spontaneous behavior (Wistar rats [2]; [3]) | inhibition of the total number of spontaneous behavior observed within 2 hours after administration of methamphetamine (Wistar rats [1]) | inhibition action on number of spontaneous behavior (male Wistar rats) | number of rearing (male Wistar rats) | number of spontaneous behavior (Wistar rats [2]; after 75 minutes of methamphetamine 1.0 mg/kg i.p.) | site selectivity (Wistar rats [2]; caudate nucleus putamen versus tonsillar nucleus administration)
1 | CC(C)C[C@H](NC(=O)C(C)(C)C)C(=O)NCCCC(=O)O [PLG, Piv-Leu-GABA, reference compound] | about 750 counts | decreased | about 650 counts | about 600 counts |  |  |  |  | 
2 | CC(C)C[C@H](NC(=O)[C@H](CO)NC(=O)C(C)(C)C)C(=O)NCCCC(=O)O [PSLG, Piv-L-Ser-Leu-GABA] (Piv-Ser-Leu-[GABA]-OH) | about 900 counts | decreased |  | about 600 counts | about 25% | stronger than that of PLG | definitely strong inhibition effect in comparison with PLG |  | 
3 | CC(C)C[C@H](NC(=O)[C@@H](CO)NC(=O)C(C)(C)C)C(=O)NCCCC(=O)O [PDSLG, Piv-D-Ser-Leu-GABA] (Piv-[dS]-Leu-[GABA]-OH) | about 820 counts | decreased |  |  | about 25% | stronger than that of PLG | definitely strong inhibition effect in comparison with PLG | about 300 counts | stronger action on caudate nucleus putamen
